In brackets after ≈: the same amount, converted by molar mass.
Key:
Escherichia coli = experiment: Antimicrobial activity against Escherichia coli; format: functional
Staphylococcus aureus = experiment: Antimicrobial activity against Staphylococcus aureus; format: functional
DNA = experiment: Binding affinity to calf thymus DNA; format: nucleic-acid assay; conditions: Bos taurus
Pseudomonas aeruginosa = experiment: Antimicrobial activity against Pseudomonas aeruginosa; format: functional

## C[C@@H]1CN(c2c(F)c(N)c3c(=O)c(C(=O)O)cn(C4CC4)c3c2F)C[C@H](C)N1 [SPARFLOXACIN]
Escherichia coli
  MIC: 8 µg/mL (≈ 20.4 µM)
Staphylococcus aureus
  MIC: 0.5 µg/mL (≈ 1.27 µM)
DNA
  Kb: 17100 M⁻¹
Pseudomonas aeruginosa
  MIC: 0.25 µg/mL (≈ 0.637 µM)
